The record followed here is patent publication US20240067603A1, “CUBANYL BIGUANIDE COMPOUNDS” (REGENTS OF THE UNIVERSITY OF MINNESOTA, priority 2020, published 2024).

SMILES strings stand for the structures. Like-named read-outs stand apart in the source and are kept apart here.

For series [1], the target named is T1, CYP3A4 (Homo sapiens, UniProt P08684). The series is described as follows: Stability with recombinant human CYP3A4. Also on record: purchased Corning; host or cells: insect cells (microsomes). It counts as in vitro ADME. The procedure:
Stability of HCB with recombinant human CYP3A4 and CYP2C8 enzymes was evaluated. 10 μM HCB was tested wich CYP3A4 and 2C8 (200 pmol/L) (Table 8). NADPH (2 mM) was added as a cofactor. Total volume was 200 μL.
HCB was incubated for 0, 30, or 60 min at 37° C. Incubations were quenched with 2 volumes of acetonitrile followed by centrifugation for 10 min at 16,000 g.

The test system of a further series is EO771. In words: Oxygen consumption rate (OCR), EO771. It counts as cell-based, mouse (C57BL/6). The protocol:
Measurement of oxygen consumption rate (OCR). Cells were maintained in growth medium consisting of 10% FBS at 37° C. with 5% CO2 and seeded at 25,000 cells per well in a 96-well XF96 cell culture microplates (Agilent, Santa Clara, CA). An 96 well XF sensor cartridge was hydrated and equilibrated with 200 ul calibrant in each well at 37° C. without CO2 overnight. Growth media was replaced with 150 μL DMEM based assay media (a non-buffered medium including 2 mM L-glutamine but no sodium bicarbonate (buffering agent), glucose, or sodium pyruvate, Agilent, Santa Clara, CA) the next day and cells were incubated CO2 free for 1 hour before the measurement of OCR by a Seahorse XFe Extracellular Flux Analyzer (Agilent, Santa Clara, CA), which measures uptake and excretion of metabolic end products in real time. After baseline measurements, 20 μl assay medium containing control vehicle or drugs were injected into corresponding wells. OCRs were measured periodically and can be reported in pmoles/minute or normalized against baseline measurements before treatment.

The target in series [2] is T1, CYP3A4. In words: CYP3A4 Supersome mediated EET biosynthesis. It counts as biochemical. Also on record: purchased Corning; host or cells: insect cells (microsomes). The procedure:
FIG. 1. Effects of HCB on CYP3A4 Supersome™ mediated EET biosynthesis. A 50 ul reaction in a 1.5 ml microcentrifuge tube contains the following components: arachidonic acid (60 μM), NDAPH (2 mM), DMSO or drug, CYP3A4 Supersome™ (1 μM) in potassium phosphate buffer (pH=7.4). The reaction was initiated by the addition of Supersome™ to the reaction mixture. After incubation at 37° C. for 30 minutes, 50 ul of acetonitrile spiked with 13C-EET internal standards was added and vortexed vigorously to terminate the reaction. Microcentrifuge tubes were centrifuged at 16,000×rpm for 10 min to precipitate proteins and other insoluble debris and 80 ul supernatant was transferred into HPLC vials and analyzed by an LC-MS as described previously (1). Results are expressed as mean±S.D. (n=3).
FIG. 2. Effects of DCB and HCB on CYP3A4 Supersome™ mediated EET biosynthesis. A 0.5 ml reaction in a 10 ml glass test tube contains the following components: arachidonic acid ([…]), NDAPH (2 mM), DMSO or drug solution (0.5 μl), CYP3A4 Supersome™ (80 nM) and 450.5 ul potassium phosphate buffer (pH=7.4). The reaction was initiated by the addition of Supersome™ to the rest. After incubation at 37° C. for 30 minutes, 0.5 ml of dichloromethane was added and vortexed vigorously to terminate the reaction. Organic phase and aqueous phase were separated by centrifugation at 3,000×rpm for 10 minutes. Two hundred microliters of the organic phase was withdrawn and evaporated to dryness. The residues were reconstituted with 20 ul methanol containing ^13C-EET internal standards and analyzed by an LC-MS as described previously (1). Results are expressed as mean±S.D. (n=3, * indicates a statistically significant difference from the control).
Recombinant Microsomal CYP-mediated EET Biosynthesis. CYP Supersomes™ (Corning, NY) (1 μM, final concentration) were incubated at 37° C. for 30 min in the presence of AA (120 μM) in 50 μl potassium phosphate buffer, (50 mM, pH 7.4), containing 1 mM EDTA and 1 mM NADPH. Reactions were terminated by addition of 50 μL of acetonitrile spiked with ^13C-EET internal standards followed by vigorous vortexing. After centrifugation at 16,000×rpm for 10 minutes to precipitate proteins and other insoluble debris and 80 μL supernatant was transferred into HPLC vials and analyzed by with an LC-ESI/MRM/MS method.
LC-ESI/MRM/MS Method for EET Measurement. EETs were measured by an LC-ESI/MRM/MS analytical method on a ThermoFisher Vantage triple quadrupole mass spectrometer (ThermoFisher, San Jose, CA) coupled with an UltiMate 3000 HPLC (ThermoFisher, San Jose, CA), using argon as the collision gas. Negative ion monitoring was performed at the following diagnostic product ions: 319 m/z→155 m/z for 8,9-EET; 319 m/z→179 m/z for 11,12-EET; 319 m/z→219 m/z for 14,15-EET; 339 m/z→163 m/z for 8,9-[^13C-20]EET; 339 m/z→233 m/z for 11,12-[^13C-20]EET; and 339 m/z→259 m/z for 14,15-[^13C-20]EET. Base-line resolution of EET regioisomers was achieved on a Phenomenex Luna C18 (2) reverse phase capillary column (250×0.5 mm, 5-μm particles) using the following mobile phase combinations: isocratic 5% B for 5 min, gradient 5-70% B for 5 min, hold at 70% for 30 min and then 95% for 10 min; A: 0.01% acetic acid in water, B: 0.01% acetic acid in acetonitrile; 10 μl/min flow rate. A standard curve was obtained by linear regression of the peak area ratio of authentic EET regioisomers against internal standards. The amount of EETs in samples was calculated according to the standard curve.

T1 sequence (P08684 whole entry): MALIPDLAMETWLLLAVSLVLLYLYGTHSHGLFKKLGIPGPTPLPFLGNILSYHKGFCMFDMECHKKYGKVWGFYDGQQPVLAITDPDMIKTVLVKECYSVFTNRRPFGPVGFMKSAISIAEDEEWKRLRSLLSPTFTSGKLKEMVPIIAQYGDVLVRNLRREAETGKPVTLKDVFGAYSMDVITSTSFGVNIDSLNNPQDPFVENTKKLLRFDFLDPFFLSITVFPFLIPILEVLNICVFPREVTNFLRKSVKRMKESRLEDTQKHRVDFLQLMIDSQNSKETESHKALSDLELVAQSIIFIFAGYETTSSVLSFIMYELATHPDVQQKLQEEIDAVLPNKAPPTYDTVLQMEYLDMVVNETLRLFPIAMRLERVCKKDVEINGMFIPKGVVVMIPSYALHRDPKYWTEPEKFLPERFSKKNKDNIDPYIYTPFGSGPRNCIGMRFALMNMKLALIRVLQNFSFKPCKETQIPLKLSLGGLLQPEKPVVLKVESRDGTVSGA

A word on the IC50: it is the point on the concentration scale where inhibition reaches its midpoint. A word on the Ki: it is a measure of affinity in units of concentration, obtained from inhibition or displacement. On to `CCCCCCNC(=N)NC(=N)NCC12C3C4C5C3C1C5C42` (centres unmarked) [HCB, Hexyl Cubanomethyl Biguanide], for which the “parent metabolite peak area after 60 min” value on CYP3A4 [1] (10 μM HCB, recombinant human CYP3A4, NADPH 2 mM) worked out at 93.91%. Besides, at CYP3A4 [1] (recombinant human CYP3A4 and CYP2C8), the degradation pathways result was “oxidation, dealkylation, and hydrogenation”. In addition, in the series with EO771, the “OCR Inhibition [HCB] (uM) v vs. control (P < 0.05)” value is 20 µM. Moreover, the IC50 amounted to 28 µM at CYP3A4 [2] ((±)8,9-EET, Example B text, read-out: IC50, CYP3A4 biosynthesis of (±)8,9-EET); 56 µM at CYP3A4 [2] ((±)11,12-EET, Example B text, read-out: IC50, CYP3A4 biosynthesis of (±)11,12-EET); 3.8 µM at CYP3A4 [2] ((±)14,15-EET, Example B text, read-out: IC50, CYP3A4-mediated biosynthesis of (±)14,15-EET); 64.8 ± 6.5 µM at CYP3A4 [2] (FIG. 1, (±)8,9-EET, curve fitting, read-out: IC50 for (±)8,9-EET biosynthesis); 26.5 ± 1.9 µM at CYP3A4 [2] (FIG. 1, (±)11,12-EET, curve fitting, read-out: IC50 for (±)11,12-EET biosynthesis); 4.7 ± 0.2 µM on CYP3A4 [2] (FIG. 1, (±)14,15-EET, arachidonic acid 60 μM, CYP3A4 Supersome 1 μM, 30 min, curve fitting, read-out: IC50 for (±)14,15-EET biosynthesis). Also, at CYP3A4 [2] ((±)-14,15-EET, read-out: Ki, inhibition of biosynthesis of (±)-14,15-EET), the Ki amounted to 4.7 µM. Also, the “fold more potent than HBB for inhibiting biosynthesis of (±)14,15-EET” value on CYP3A4 [2] (HCB vs HBB, CYP3A4) is on record as around 2.5 fold.
